EC50, CC50 and IC50 data for 8 molecules are collected here from ChEMBL document CHEMBL1201862, “PubChem BioAssay data set” (2004).

Active and inactive are the calls of the source. Some results are limits rather than exact numbers.

Assay [1] deals with Lysosomal acid glucosylceramidase (Homo sapiens, UniProt P04062). The assay is described as follows: Dose response cell-based high throughput screening assay to identify enhancers of beta-glucosidase activity. [Related pubchem assays: 784 ]. In kind it is functional.
In assay [2] the test system is HEK293. The assay is described as follows: Fluorescence-based counterscreen for potentiators or agonists of NPY-Y2: cell-based high-throughput dose response assay to identify inhibitors of cyclic nucleotide gated ion channel (CNGC) activity. In this assay, the parental HEK293 cell line transfected with a cyclic-nucleotide gated ion channel (CNGC)-based cAMP sensor is used to measure inhibition of isoproterenol-induced CNGC activity by test compound. It counts as functional. The conditions noted are these: Homo sapiens. Background: Counterscreens check selectivity or assay interference.

In assay [3] the target is T1, Neuropeptide Y receptor type 1 (Homo sapiens, UniProt P25929).
T1 sequence (P25929 whole entry): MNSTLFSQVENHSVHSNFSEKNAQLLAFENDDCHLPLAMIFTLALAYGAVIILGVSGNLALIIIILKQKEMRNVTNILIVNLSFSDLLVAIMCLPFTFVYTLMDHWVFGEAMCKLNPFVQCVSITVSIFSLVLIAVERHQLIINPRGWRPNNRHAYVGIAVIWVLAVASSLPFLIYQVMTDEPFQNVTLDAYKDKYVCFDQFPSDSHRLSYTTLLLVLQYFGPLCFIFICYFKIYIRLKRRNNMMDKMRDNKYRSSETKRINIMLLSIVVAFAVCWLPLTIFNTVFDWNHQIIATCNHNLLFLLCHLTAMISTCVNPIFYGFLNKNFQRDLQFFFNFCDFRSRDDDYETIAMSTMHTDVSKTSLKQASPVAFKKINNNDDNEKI
In words: Fluorescence-based counterscreen for agonists of NPY-Y2: cell-based high-throughput dose response assay for agonists of NPY-Y1. It counts as functional.

Assay [4] addresses T2, Neuropeptide Y receptor type 2 (Homo sapiens, UniProt P49146).
T2 sequence (P49146 whole entry): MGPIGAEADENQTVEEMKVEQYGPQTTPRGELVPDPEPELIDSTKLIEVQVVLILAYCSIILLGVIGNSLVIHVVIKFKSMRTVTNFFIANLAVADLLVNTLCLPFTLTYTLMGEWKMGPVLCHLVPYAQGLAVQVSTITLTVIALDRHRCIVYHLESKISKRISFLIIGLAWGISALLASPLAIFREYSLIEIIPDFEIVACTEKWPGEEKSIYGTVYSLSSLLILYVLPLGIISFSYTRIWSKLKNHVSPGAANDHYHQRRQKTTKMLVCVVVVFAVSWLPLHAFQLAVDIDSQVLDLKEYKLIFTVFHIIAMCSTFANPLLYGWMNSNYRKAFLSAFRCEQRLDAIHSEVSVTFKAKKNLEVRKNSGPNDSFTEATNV
In words: Fluorescence-based cell-based high-throughput dose response assay for agonists of NPY-Y2. [Related pubchem assays: 1703 (Screening assay (CNGC inhibitors).), 1359 (Screening assay (NPY-Y2 potentiators or agonists).), 1304 (Screening assay (NPY-Y1 potentiators or agonists).), 1710 (Screening assay (NPY-Y2 agonists).), 1791 (Summary AID.)]. In kind it is functional.

Assay [5] in a line: viability loss in THP-1 monocytes – THP-1 cells, cytotoxicity control for Vif-APOBEC3G degradation inhibitor project, dose response (AID 1117359). It counts as functional. The conditions noted are these: THP-1.
Assay [6] concerns the target Voltage-dependent T-type calcium channel subunit alpha-1H (Homo sapiens, UniProt O95180). It counts as functional.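 Note: channel activity triggered by adding a high calcium stimulation buffer.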
Assay [7] concerns the target Nucleotide-binding oligomerization domain-containing protein 2 (Homo sapiens, UniProt Q9HC29). In words: inhibition of NOD2-driven NF-kB reporter – cell-based, luminescence, uHTS, HEK293 (AID 1566). In kind it is functional.
For assay [8], the system named is HEK293. The assay is described as follows: inhibition of NOD1-driven NF-kB reporter – cell-based, luminescence, uHTS, primary screen (AID 1578). It counts as functional. The conditions noted are these: Homo sapiens.
For assay [9], the system named is HEK293. In words: cells. In kind it is functional, cell-based. The conditions noted are these: Homo sapiens.
Assay [10] relates to HEK293. In words: cells. In kind it is functional, cell-based. The conditions noted are these: Homo sapiens. This is another data set of the same source.
Assay [11] relates to HEK293. The assay is described as follows: NOD2 signaling inhibitors in MDP-stimulated cells, cell-based, uHTS, luminescence (AID 2001). It counts as functional. The conditions noted are these: Homo sapiens.
Assay [12] concerns HEK293. The assay is described as follows: cells. In kind it is functional, cell-based. The conditions noted are these: Homo sapiens. The source holds these as a separate data set.
Assay [13] has as its target DNA dC->dU-editing enzyme APOBEC-3A (Homo sapiens, UniProt P31941). In words: A3A deaminase inhibition for selectivity – biochemical, dose response (AID 504722). In kind it is functional.
The target in assay [14] is DNA dC->dU-editing enzyme APOBEC-3G (Homo sapiens, UniProt Q9HC16). In words: Dose Response confirmation of small molecule APOBEC3G DNA Deaminase Inhibitors via a fluorescence-based single-stranded DNA deaminase assay. [Related pubchem assays (depositor defined):AID493012, AID493028]. In kind it is functional.
Assay [15] has as its target T3, Heat shock factor protein 1 (Mus musculus, UniProt P38532).
T3 sequence (P38532 whole entry): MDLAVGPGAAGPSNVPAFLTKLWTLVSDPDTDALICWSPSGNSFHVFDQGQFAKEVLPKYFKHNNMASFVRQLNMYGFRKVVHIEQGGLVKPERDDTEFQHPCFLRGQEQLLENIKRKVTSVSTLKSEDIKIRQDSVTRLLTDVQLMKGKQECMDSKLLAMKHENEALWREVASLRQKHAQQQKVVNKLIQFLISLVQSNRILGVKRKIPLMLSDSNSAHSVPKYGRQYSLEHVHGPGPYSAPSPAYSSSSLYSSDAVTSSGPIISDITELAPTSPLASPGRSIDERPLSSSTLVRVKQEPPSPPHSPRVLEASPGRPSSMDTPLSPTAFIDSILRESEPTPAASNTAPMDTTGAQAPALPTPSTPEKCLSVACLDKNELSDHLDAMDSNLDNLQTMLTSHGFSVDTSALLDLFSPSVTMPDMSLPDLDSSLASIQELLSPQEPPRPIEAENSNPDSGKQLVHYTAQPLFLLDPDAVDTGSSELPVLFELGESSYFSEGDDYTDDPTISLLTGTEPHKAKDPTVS
The assay is described as follows: enhancement of HSF1-driven luciferase signal – cell-based, NIH3T3, luminescence, dose retest, confirmation (AID 435004).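 Note: stress induced by proteasome inhibitor MG132 added 30 min after compound; luciferase reporter driven by HSF1 response element in NIH3T3 cells; actives raise luminescence as potentiators of the MG132 stress response.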 It counts as functional.

In assay [16] the target is Dual specificity protein phosphatase 3 (Homo sapiens, UniProt P51452). In words: SAR VHR1 Fluorescent Assay for In Vitro dose response studies Set 2. [Related pubchem assays (depositor defined):AID1654, AID1661, AID1878]. It counts as functional.
Assay [17] addresses T4, Tyrosine-protein phosphatase non-receptor type 7 (Homo sapiens, UniProt P35236).
T4 sequence (P35236 whole entry): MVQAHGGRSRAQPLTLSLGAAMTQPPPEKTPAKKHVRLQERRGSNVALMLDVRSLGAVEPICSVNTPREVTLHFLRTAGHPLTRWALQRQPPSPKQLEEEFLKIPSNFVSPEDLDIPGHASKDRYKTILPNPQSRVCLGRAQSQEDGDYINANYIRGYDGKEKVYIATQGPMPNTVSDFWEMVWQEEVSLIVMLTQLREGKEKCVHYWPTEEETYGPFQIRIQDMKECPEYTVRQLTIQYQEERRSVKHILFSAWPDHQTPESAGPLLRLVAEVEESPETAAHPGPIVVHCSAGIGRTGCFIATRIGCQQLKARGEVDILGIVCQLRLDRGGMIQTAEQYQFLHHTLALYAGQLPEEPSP
In words: SAR analysis of chemical inhibitors of HePTP using a Fluorescent assay - Set 2. [Related pubchem assays (depositor defined):AID1059, AID1077, AID1661, AID2085, AID521]. It counts as functional.

Chain of DNA dC->dU-editing enzyme APOBEC-3G (Q9HC16 whole entry): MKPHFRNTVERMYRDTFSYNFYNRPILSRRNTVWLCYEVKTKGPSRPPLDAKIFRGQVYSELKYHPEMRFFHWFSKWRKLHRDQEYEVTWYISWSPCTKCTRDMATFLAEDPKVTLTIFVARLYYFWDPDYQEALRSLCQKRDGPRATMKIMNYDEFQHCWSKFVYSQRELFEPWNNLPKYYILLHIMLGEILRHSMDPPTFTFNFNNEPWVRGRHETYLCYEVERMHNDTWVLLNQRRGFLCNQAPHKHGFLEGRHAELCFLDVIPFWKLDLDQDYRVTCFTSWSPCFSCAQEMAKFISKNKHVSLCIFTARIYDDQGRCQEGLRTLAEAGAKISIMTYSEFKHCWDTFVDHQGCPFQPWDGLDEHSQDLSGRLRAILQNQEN
Chain of Lysosomal acid glucosylceramidase (P04062 whole entry): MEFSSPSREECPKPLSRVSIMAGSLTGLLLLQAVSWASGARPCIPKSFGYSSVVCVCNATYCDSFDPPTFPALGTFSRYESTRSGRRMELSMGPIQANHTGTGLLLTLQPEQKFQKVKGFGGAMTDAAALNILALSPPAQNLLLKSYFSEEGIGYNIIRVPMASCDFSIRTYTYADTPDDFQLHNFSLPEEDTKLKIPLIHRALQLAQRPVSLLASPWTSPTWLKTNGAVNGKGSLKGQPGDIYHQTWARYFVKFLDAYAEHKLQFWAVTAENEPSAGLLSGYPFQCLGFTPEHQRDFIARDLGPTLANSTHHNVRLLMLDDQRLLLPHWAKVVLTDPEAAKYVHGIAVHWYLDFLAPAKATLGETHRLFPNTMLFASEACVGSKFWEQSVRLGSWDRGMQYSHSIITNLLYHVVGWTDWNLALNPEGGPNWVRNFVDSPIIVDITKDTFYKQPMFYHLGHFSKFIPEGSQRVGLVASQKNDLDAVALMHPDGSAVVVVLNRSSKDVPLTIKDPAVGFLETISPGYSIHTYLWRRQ
Chain of DNA dC->dU-editing enzyme APOBEC-3A (P31941 whole entry): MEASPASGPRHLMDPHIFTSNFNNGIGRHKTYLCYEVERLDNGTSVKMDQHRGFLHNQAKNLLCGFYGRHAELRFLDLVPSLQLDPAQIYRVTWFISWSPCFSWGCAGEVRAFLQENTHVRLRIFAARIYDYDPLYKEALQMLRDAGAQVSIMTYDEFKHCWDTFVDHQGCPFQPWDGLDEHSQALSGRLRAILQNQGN
Chain of Dual specificity protein phosphatase 3 (P51452 whole entry): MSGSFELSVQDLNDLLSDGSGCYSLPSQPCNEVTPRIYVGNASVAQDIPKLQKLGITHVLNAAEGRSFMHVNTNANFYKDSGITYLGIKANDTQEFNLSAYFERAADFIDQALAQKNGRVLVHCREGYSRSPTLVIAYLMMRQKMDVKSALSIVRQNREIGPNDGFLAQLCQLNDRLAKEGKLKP
Chain of Voltage-dependent T-type calcium channel subunit alpha-1H (O95180 whole entry, the tested form may be a part): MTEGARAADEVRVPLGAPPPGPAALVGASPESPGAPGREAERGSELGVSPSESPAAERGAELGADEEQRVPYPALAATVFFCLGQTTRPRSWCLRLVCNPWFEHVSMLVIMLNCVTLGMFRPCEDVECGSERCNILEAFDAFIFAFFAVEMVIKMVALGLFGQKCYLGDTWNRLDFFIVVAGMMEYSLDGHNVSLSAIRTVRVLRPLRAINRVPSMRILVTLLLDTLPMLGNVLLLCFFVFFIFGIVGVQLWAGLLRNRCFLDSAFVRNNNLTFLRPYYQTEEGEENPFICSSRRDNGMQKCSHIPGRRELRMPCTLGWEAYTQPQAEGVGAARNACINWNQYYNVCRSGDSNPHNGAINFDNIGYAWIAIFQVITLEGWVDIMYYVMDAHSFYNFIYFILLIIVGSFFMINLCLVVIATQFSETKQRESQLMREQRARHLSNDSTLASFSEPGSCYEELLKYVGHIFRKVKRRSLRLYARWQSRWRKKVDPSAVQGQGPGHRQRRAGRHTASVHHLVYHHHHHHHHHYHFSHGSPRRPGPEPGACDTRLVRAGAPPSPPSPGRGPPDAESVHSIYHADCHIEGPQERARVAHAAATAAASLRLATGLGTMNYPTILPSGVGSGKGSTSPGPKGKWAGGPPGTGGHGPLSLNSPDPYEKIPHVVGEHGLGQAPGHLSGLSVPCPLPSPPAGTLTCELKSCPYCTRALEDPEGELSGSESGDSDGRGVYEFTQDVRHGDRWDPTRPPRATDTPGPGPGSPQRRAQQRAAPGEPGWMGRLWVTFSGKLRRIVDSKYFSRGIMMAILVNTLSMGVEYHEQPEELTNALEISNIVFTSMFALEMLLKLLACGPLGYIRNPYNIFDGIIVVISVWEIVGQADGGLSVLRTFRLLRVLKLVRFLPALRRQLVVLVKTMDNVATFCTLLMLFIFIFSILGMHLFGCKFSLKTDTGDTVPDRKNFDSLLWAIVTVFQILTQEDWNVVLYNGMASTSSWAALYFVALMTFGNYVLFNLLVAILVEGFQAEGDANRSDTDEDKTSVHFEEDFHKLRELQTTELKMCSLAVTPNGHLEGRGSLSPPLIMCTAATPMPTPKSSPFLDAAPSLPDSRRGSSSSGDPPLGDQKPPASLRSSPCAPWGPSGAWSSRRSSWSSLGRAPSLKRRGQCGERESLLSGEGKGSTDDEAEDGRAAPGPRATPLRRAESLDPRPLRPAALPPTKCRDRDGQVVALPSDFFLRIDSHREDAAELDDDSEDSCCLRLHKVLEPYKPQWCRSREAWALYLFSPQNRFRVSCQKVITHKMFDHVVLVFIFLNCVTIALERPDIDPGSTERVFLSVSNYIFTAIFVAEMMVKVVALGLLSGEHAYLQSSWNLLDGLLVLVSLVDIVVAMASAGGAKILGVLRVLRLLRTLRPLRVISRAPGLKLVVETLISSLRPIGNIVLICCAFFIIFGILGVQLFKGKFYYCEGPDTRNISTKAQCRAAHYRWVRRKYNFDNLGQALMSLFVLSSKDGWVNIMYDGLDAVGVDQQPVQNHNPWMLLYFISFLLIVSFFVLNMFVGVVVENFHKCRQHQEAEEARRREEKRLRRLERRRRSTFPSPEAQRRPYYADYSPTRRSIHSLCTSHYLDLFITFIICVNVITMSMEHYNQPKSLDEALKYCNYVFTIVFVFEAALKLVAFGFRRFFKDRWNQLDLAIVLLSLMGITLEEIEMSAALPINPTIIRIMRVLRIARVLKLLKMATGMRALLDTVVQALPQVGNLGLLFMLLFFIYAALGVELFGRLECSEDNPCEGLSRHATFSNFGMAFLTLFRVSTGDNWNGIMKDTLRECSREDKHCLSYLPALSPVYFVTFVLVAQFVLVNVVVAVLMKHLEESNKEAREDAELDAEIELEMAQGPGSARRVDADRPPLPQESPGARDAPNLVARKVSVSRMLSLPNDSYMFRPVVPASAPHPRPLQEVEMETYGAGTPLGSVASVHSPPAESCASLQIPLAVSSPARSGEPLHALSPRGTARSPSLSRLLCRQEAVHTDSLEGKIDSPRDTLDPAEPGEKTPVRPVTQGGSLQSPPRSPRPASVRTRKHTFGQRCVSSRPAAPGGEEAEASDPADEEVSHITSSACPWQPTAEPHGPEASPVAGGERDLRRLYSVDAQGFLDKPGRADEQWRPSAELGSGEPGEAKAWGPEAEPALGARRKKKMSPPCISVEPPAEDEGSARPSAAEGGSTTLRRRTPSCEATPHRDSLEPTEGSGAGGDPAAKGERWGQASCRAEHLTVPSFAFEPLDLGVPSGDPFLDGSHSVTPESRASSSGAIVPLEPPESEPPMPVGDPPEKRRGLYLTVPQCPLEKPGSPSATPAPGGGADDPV
Chain of Nucleotide-binding oligomerization domain-containing protein 2 (Q9HC29 whole entry, the tested form may be a part): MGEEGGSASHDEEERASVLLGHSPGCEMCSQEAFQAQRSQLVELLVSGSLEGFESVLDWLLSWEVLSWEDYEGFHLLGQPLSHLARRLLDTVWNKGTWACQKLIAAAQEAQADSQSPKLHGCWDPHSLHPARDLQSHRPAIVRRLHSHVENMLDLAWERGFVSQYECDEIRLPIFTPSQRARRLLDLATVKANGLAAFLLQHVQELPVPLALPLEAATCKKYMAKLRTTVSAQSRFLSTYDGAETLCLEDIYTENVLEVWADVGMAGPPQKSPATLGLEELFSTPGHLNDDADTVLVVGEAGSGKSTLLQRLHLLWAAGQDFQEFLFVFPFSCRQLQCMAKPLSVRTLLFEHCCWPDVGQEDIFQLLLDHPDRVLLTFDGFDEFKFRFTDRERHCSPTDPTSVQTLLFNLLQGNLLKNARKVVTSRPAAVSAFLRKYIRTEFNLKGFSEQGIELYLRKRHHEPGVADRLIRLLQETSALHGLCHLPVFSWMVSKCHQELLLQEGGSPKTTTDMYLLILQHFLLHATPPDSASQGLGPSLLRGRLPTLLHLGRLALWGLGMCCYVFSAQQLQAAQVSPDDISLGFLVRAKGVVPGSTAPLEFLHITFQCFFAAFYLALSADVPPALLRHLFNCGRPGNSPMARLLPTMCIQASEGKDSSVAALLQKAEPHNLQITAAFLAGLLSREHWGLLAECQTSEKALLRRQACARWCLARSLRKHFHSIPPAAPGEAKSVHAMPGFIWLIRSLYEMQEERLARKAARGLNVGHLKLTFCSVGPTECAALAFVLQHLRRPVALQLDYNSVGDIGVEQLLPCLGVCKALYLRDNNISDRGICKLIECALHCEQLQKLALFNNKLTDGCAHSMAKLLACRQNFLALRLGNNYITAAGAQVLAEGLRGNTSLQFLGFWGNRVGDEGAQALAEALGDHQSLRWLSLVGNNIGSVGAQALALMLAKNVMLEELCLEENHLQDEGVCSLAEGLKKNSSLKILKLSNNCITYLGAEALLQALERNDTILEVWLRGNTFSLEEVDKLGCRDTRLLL

In general, EC50 refers to the midpoint of the concentration-response curve. Take `Cc1ccc(C)c(N(C)S(=O)(=O)c2cccc3nsnc23)c1`: the EC50 in [1] is > 50 µM (not active).
As a reminder, the CC50 is the concentration at which the toxic effect on the cells reaches its halfway point. For the molecule `O=C(N/N=C\c1ccc(Cl)cc1)C1=NOC2COC3(CCN(c4ccc([N+](=O)[O-])cc4)CC3)OCC12` (stereo not drawn), the EC50 (in the assay on HEK293 [2]; in [3]; in assay [4]) was > 35.4 µM (not active) in each case. The CC50 in assay [5] was > 40 µM (active).
`COc1cccc(NC(=O)C2C3C=CC4(O3)C2C(=O)N(C(C)C)C4C(=O)NC2CCCCC2C)c1` (stereo not drawn): in assay [1], the EC50 was > 50 µM (not active).
For orientation: IC50 means the point on the concentration scale where inhibition reaches its midpoint. For `Cc1nc2ccccc2c2oc(C(=O)NCC3COc4ccccc4O3)cc12` (stereo not drawn), the EC50 in assay [6] is 7.77 µM (active); in [7], 4.75 µM (active); in the assay on HEK293 [8], 4.69 µM (active). Further, the IC50 was 8.6 µM (active) with HEK293 [9], 4.14 µM (active) with HEK293 [10], 3.93 µM (inactive) with HEK293 [11] and > 20 µM (inactive) in the assay on HEK293 [12].
Regarding `N#Cc1c(-c2ccncc2)c2c([nH]c1=S)CCCC2`, the IC50 in assay [13] is > 100 µM (inactive); in [14] it was 2.21 µM (active).
With `O=C(c1ccc(F)cc1F)C1CCN(c2ccc([N+](=O)[O-])cn2)CC1`, the EC50 in the assay on HEK293 [2] was > 35.4 µM (not active); in assay [3] it was > 35.4 µM (not active); in assay [15], > 260 µM (inactive); in [4], 27.5 µM (not active).
As to `NS(=O)(=O)c1ccc(NC(=S)N2CCN(Cc3ccccc3)CC2)cc1`, the IC50 in assay [16] was 38.1 µM (active); in assay [17], 49.7 µM (active).
For the molecule `N#Cc1c(S)nc2c(c1-c1cccnc1)CCCC2`, the results for the IC50 in assay [13] and in [14] were > 100 µM (inactive) and 2.72 µM (active), respectively.
